Numbers after ± are expanded uncertainties.
Test: mn = molality of the nth substance listed, in mol/kg
Conditions: 101 kPa, Liquid; for speed of sound: Pulse-echo method

OC[C@H]1O[C@H](OC[C@H]2O[C@H](O[C@]3(CO)O[C@H](CO)[C@@H](O)[C@@H]3O)[C@H](O)[C@@H](O)[C@@H]2O)[C@H](O)[C@@H](O)[C@H]1O [D-raffinose] + O
Conditions	mass density, 293.15 K [kg/m3]	mass density, 298.15 K [kg/m3]	mass density, 303.15 K [kg/m3]	mass density, 308.15 K [kg/m3]	mass density, 313.15 K [kg/m3]	speed of sound, 293.15 K [m/s]	speed of sound, 298.15 K [m/s]	speed of sound, 303.15 K [m/s]	speed of sound, 308.15 K [m/s]	speed of sound, 313.15 K [m/s]
m1 = 0.05	1007.77 ± 1.8	1006.5 ± 1.8	1004.91 ± 1.8	1003.05 ± 1.7	1001.02 ± 1.7	1491.8 ± 3.3	1505.7 ± 3.4	1517.8 ± 3.4	1528.3 ± 3.3	1537.3 ± 3.2
m1 = 0.055	1008.68 ± 1.8	1007.4 ± 1.8	1005.81 ± 1.8	1003.92 ± 1.7	1001.99 ± 1.7	1492.6 ± 3.3	1506.5 ± 3.4	1518.6 ± 3.4	1529.1 ± 3.3	1538.1 ± 3.2
m1 = 0.06	1009.59 ± 1.8	1008.29 ± 1.8	1006.72 ± 1.8	1004.79 ± 1.7	1002.85 ± 1.7	1493.5 ± 3.3	1507.3 ± 3.3	1519.4 ± 3.2	1529.8 ± 3.2	1538.8 ± 3.2
m1 = 0.065	1010.49 ± 1.8	1009.18 ± 1.8	1007.61 ± 1.8	1005.69 ± 1.7	1003.72 ± 1.7	1494.3 ± 3.3	1508.2 ± 3.3	1520.2 ± 3.3	1530.6 ± 3.2	1539.6 ± 3.2
m1 = 0.07	1011.48 ± 1.8	1010.16 ± 1.8	1008.56 ± 1.8	1006.61 ± 1.8	1004.62 ± 1.7	1495.1 ± 3.3	1509 ± 3.3	1521 ± 3.3	1531.4 ± 3.2	1540.4 ± 3.2
m1 = 0.075	1012.36 ± 1.8	1011.1 ± 1.8	1009.46 ± 1.8	1007.55 ± 1.8	1005.58 ± 1.7	1496 ± 3.4	1509.8 ± 3.3	1521.8 ± 3.3	1532.1 ± 3.2	1541.1 ± 3.2
m1 = 0.08	1013.3 ± 1.8	1011.98 ± 1.8	1010.34 ± 1.8	1008.42 ± 1.8	1006.46 ± 1.8	1496.8 ± 3.4	1510.6 ± 3.4	1522.6 ± 3.3	1532.9 ± 3.2	1541.9 ± 3.2
m1 = 0.085	1014.21 ± 1.8	1012.93 ± 1.8	1011.23 ± 1.8	1009.29 ± 1.8	1007.35 ± 1.8	1497.7 ± 3.4	1511.4 ± 3.4	1523.4 ± 3.3	1533.7 ± 3.3	1542.7 ± 3.2
m1 = 0.09	1015.18 ± 1.8	1013.88 ± 1.8	1012.18 ± 1.8	1010.25 ± 1.8	1008.33 ± 1.8	1498.5 ± 3.5	1512.2 ± 3.4	1524.2 ± 3.4	1534.4 ± 3.3	1543.4 ± 3.2
m1 = 0.1	1016.99 ± 1.8	1015.7 ± 1.8	1014.08 ± 1.8	1011.99 ± 1.8	1010.23 ± 1.8	1500.1 ± 3.5	1513.9 ± 3.4	1525.8 ± 3.3	1536 ± 3.3	1544.9 ± 3.2

O=C[C@H](O)[C@H](O)[C@H](O)CO [D-ribose] + O
Conditions	mass density, 293.15 K [kg/m3]	mass density, 298.15 K [kg/m3]	mass density, 303.15 K [kg/m3]	mass density, 308.15 K [kg/m3]	mass density, 313.15 K [kg/m3]	speed of sound, 293.15 K [m/s]	speed of sound, 298.15 K [m/s]	speed of sound, 303.15 K [m/s]	speed of sound, 308.15 K [m/s]	speed of sound, 313.15 K [m/s]
m1 = 0.05	1001.07 ± 0.7	999.887 ± 0.72	998.463 ± 0.72	996.819 ± 0.73	994.955 ± 0.71	1485.2 ± 2.4	1499.2 ± 2.5	1511.3 ± 2.4	1521.9 ± 2.4	1530.9 ± 2.3
m1 = 0.055	1001.36 ± 0.7	1000.17 ± 0.72	998.749 ± 0.72	997.103 ± 0.73	995.237 ± 0.71	1485.4 ± 2.4	1499.4 ± 2.5	1511.5 ± 2.5	1522 ± 2.4	1531 ± 2.3
m1 = 0.06	1001.65 ± 0.7	1000.47 ± 0.69	999.035 ± 0.69	997.383 ± 0.7	995.517 ± 0.71	1485.6 ± 2.4	1499.5 ± 2.4	1511.6 ± 2.4	1522.2 ± 2.4	1531.2 ± 2.3
m1 = 0.065	1001.94 ± 0.7	1000.75 ± 0.7	999.317 ± 0.69	997.667 ± 0.7	995.796 ± 0.71	1485.8 ± 2.4	1499.7 ± 2.4	1511.8 ± 2.4	1522.3 ± 2.4	1531.3 ± 2.3
m1 = 0.07	1002.23 ± 0.7	1001.04 ± 0.7	999.606 ± 0.69	997.954 ± 0.7	996.076 ± 0.7	1485.9 ± 2.4	1499.8 ± 2.4	1511.9 ± 2.4	1522.5 ± 2.4	1531.4 ± 2.4
m1 = 0.075	1002.52 ± 0.7	1001.33 ± 0.7	999.887 ± 0.69	998.237 ± 0.7	996.357 ± 0.7	1486.1 ± 2.4	1500 ± 2.5	1512 ± 2.4	1522.6 ± 2.4	1531.6 ± 2.4
m1 = 0.08	1002.82 ± 0.71	1001.62 ± 0.7	1000.17 ± 0.69	998.519 ± 0.69	996.637 ± 0.7	1486.2 ± 2.4	1500.1 ± 2.5	1512.2 ± 2.4	1522.7 ± 2.4	1531.7 ± 2.4
m1 = 0.085	1003.11 ± 0.71	1001.91 ± 0.7	1000.47 ± 0.69	998.806 ± 0.69	996.917 ± 0.7	1486.4 ± 2.4	1500.2 ± 2.5	1512.2 ± 2.5	1522.8 ± 2.4	1531.8 ± 2.4
m1 = 0.09	1003.4 ± 0.71	1002.21 ± 0.7	1000.75 ± 0.69	999.089 ± 0.69	997.196 ± 0.7	1486.5 ± 2.5	1500.3 ± 2.5	1512.4 ± 2.5	1523 ± 2.5	1532 ± 2.4
m1 = 0.1	1003.98 ± 0.71	1002.79 ± 0.68	1001.33 ± 0.67	999.652 ± 0.67	997.754 ± 0.69	1486.8 ± 2.5	1500.6 ± 2.5	1512.6 ± 2.5	1523.2 ± 2.5	1532.2 ± 2.4

CC(C)C[C@H](N)C(=O)O [L-leucine] + O
Conditions	mass density, 293.15 K [kg/m3]	mass density, 298.15 K [kg/m3]	mass density, 303.15 K [kg/m3]	mass density, 308.15 K [kg/m3]	mass density, 313.15 K [kg/m3]	speed of sound, 293.15 K [m/s]	speed of sound, 298.15 K [m/s]	speed of sound, 303.15 K [m/s]	speed of sound, 308.15 K [m/s]	speed of sound, 313.15 K [m/s]
m1 = 0.025	998.94 ± 0.69	997.765 ± 0.7	996.352 ± 0.7	994.719 ± 0.7	992.893 ± 0.7	1486.2 ± 2.4	1500.2 ± 2.4	1512.3 ± 2.3	1522.8 ± 2.3	1531.7 ± 2.3
m1 = 0.05	999.543 ± 0.68	998.36 ± 0.69	996.938 ± 0.7	995.302 ± 0.7	993.464 ± 0.71	1489.2 ± 2.4	1502.9 ± 2.4	1515 ± 2.3	1525.4 ± 2.3	1534.2 ± 2.3
m1 = 0.1	1000.6 ± 0.68	999.369 ± 0.68	997.956 ± 0.69	996.293 ± 0.7	994.341 ± 0.7	1495.2 ± 2.4	1508.8 ± 2.3	1520.6 ± 2.3	1530.8 ± 2.3	1539.4 ± 2.3
